Measurements: patent US20230028539A1, “PHARMACEUTICAL COMPOSITION, COMPLEMENTARY KIT AND APPLICATION THEREOF” (SHANGHAI PHARMACEUTICALS HOLDING CO., LTD., priority 2019, published 2023)
Read-outs that look alike come from different tables or passages of the source.

How the values were obtained:
[1] = target: T1, MAO-B (Homo sapiens, UniProt P27338); conditions: cited from earlier work; for inhibitory strength to MAO-B than that to MAO-A: selectivity MAO-B over MAO-A
T1 sequence (P27338 1-520): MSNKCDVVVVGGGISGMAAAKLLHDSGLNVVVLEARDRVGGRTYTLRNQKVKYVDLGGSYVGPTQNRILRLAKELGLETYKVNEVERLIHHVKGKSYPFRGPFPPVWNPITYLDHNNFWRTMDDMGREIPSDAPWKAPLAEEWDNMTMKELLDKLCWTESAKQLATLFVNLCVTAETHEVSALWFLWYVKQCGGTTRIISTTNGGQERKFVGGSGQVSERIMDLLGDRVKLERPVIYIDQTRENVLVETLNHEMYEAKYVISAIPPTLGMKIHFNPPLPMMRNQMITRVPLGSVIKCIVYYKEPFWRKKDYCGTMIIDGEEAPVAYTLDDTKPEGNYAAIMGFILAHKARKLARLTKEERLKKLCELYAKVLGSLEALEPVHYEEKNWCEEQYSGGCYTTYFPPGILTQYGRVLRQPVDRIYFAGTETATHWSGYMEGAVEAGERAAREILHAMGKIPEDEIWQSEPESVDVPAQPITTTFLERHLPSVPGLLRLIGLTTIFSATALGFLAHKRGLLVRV

[2] = system: 6-OHDA-induced unilateral damage PD model; experiment: Apomorphine-induced contralateral circling test in 6-OHDA-induced rat Parkinson's disease model; assay type: in vivo, male Wistar rat; conditions: after 29 days of treatment, FIG. 3
Procedure: 3.1.2 The animals were injected intraperitoneally with APO (0.5 mg/kg, 2 mL/kg) 3 minutes before testing.
3.1.3 The animals were placed in a circular test box after dosing. Changes in animal behavior were observed and recorded by Ethovi si on video software, and the number of revolutions of each animal within 30 min was counted manually.
3.1.4 APO-induced circling behavior: The animal circled rightwards with the left hind limb as the fulcrum. One turn was counted as one revolution by taking the head of the rat as a reference. Animals with more than 180 revolutions within 30 min were qualified rat Parkinson's disease models.
3.2.1 140 animals were randomly selected, and intramuscularly injected with Zoletil at 30 mg/kg in combination with 3 mg/kg of xylazine hydrochloride for general anesthesia before the operation.
3.2.7 The injection of 6-OHDA was started 2 min after the needle reached the designated depth. […]
3.3.3 The animals were placed in a circular test box after dosing. Changes in animal behavior were observed and recorded by Ethovision video software, and the number of revolutions of each animal within 30 min was counted manually.
3.3.4 APO-induced circling behavior: The animal circled rightwards with the left hind limb as the fulcrum. One turn was counted as one revolution by taking the head of the rat as a reference. […]

[3] = system: patients with early PD; conditions: 24 weeks, cited from earlier work
[4] = system: MPTP-induced mouse Parkinson's disease model; experiment: MPTP-induced mouse Parkinson's disease model, dopamine content in dorsal striatum by LC-MS; assay type: in vivo, male C57BL/6J mice
Procedure: Animals in control group were injected with an equal volume of […]. After 6 weeks, mice were euthanized and the dorsal striatum was separated after normal saline perfusion, weighed and preserved in a −80° C. freezer. The content of dopamine in dorsal striatal was determined by LC-MS. [table]

SMILES | reversibility of MAO-B inhibition [1] | inhibitory strength to MAO-B than that to MAO-A [1] [fold] | reduction in the number of revolutions compared with that before treatment ([2]; G4, PPX 0.1 mpk P.O. QD) [%] | time after discontinuation until physiological function completely restored ([1]; after discontinuation) [h] | improvement of movement symptoms (total UPDRS score, LPDRS [sic]) ([3]; safinamide 100 mg/d in combination with DA receptor agonist) | improvement of movement symptoms (total UPDRS score, LPDRS [sic]) ([3]; safinamide 200 mg/d in combination with DA receptor agonist) | effect on dopamine reduction in the MPTP model (FIG. 1) ([4]; average dopamine concentration in mouse brain, all dose groups) | dopamine levels in dorsal striatum compared with modeling group G2 ([4]; compound B group (15 mg/kg i.p. QD 6 weeks)) | elevation in the number of revolutions compared with that before treatment ([2]; G3, SAF 15 mpk P.O. QD) [%]
C#CCN[C@@H]1CCc2ccccc21 [rasagiline] | irreversible | 103 |  |  |  |  |  |  | 
CCCN[C@H]1CCc2nc(N)sc2C1 [Compound A, Pramipexole] |  |  | 24 |  |  |  |  |  | 
C[C@H](NCc1ccc(OCc2cccc(F)c2)cc1)C(N)=O [Compound B, Safinamide] | reversible | 5000 |  | 8 | effective | no effect in improving movement symptoms | improvement effects | significantly higher | 5
